Values quoted from earlier work in patent publication US12472264B2, “Cell-penetrating peptides” (Oxford University Innovation Limited, priority 2018, dated 2025).

Tested on: exon 51
Settings: background statement on FDA accelerated approval, September 2016

## eteplirsen
  levels of dystrophin restoration: approximately 1 % of normal dystrophin levels
